# Assay results published in US11590109B2 (priority 2016, dated 2023).
# Legend:
# [1] = system: Dengue Virus 2 (type 2 dengue virus); test: Inhibition of viral replication (CPE) at cellular level, Dengue Virus 2 in Vero; type: cell-based; settings: Dengue Virus 2 in host cell Vero; for IC50: CPE
# Excerpt: Activity Test for Inhibition of Viral Replication at Cellular Level […]
# The present inventors tested inhibitory effects of the compound of the present invention on cytopathic effects (CPE) caused by viral infection on mammalian cells.
# Half-inhibitory concentration IC50 and half toxic concentration TC50 of the compound against Dengue Virus 2 (type 2 dengue virus) in host cell Vero (African green monkey kidney cell).
# [2] = Determination of TC50 (half toxicity concentration) in RD cells; type: cell-based; settings: human, host cell RD, EV71 table
# H3N2 (influenza virus) [3] = settings: H3N2 in host cell MDCK
# H1N1 (influenza virus) [4] = settings: H1N1 in host cell MDCK
# H7N9 (influenza virus) [5] = settings: H7N9 in host cell MDCK
# [6] = system: EV71 (hand-foot-and-mouth virus); settings: EV71 in host cell RD
# in vitro = settings: African green monkey
# H3N2 (influenza virus) [7] = test: microbe, parasite or virus in culture; settings: Influenza A virus, H3N2, MDCK
# H1N1 (influenza virus) [8] = test: microbe, parasite or virus in culture; settings: Influenza A virus, H1N1, MDCK
# H7N9 (influenza virus) [9] = test: microbe, parasite or virus in culture; settings: Influenza A virus, H7N9, MDCK
# [10] = system: EV71 (hand-foot-and-mouth virus); test: microbe, parasite or virus in culture; settings: Enterovirus A
# [11] = system: RSV (human respiratory syncytial virus); test: Inhibition of viral replication (CPE) at cellular level, RSV in Vero; settings: for SI (TC50/IC50): RSV in host cell Vero; for IC50: human respiratory syncytial virus, Vero
# [12] = system: JEV (Japanese encephalitis virus); test: Inhibition of viral replication (CPE) at cellular level, JEV in Vero; settings: for SI (TC50/IC50): JEV in host cell Vero; for IC50: Japanese encephalitis virus, Vero
# Zika Virus = test: Inhibition of viral replication (CPE) at cellular level, Zika Virus in Vero; settings: for SI (TC50/IC50): Zika Virus in host cell Vero; for IC50: Zika virus, Vero
# [13] = TC50, host cell Vero, Dengue Virus 2 table
# [14] = TC50, host cell Vero, RSV table
# [15] = TC50, host cell Vero, Zika Virus table
Compound,SI (TC50/IC50) [1],IC50 [1] [nM],CC50 [2] [nM],SI (TC50/IC50) (H3N2 (influenza virus) [3]),SI (TC50/IC50) (H1N1 (influenza virus) [4]),SI (TC50/IC50) (H7N9 (influenza virus) [5]),SI (TC50/IC50) [6],CC50 (in vitro) [nM],CC50 (in vitro; [13]) [nM],CC50 (in vitro; [14]) [nM],CC50 (in vitro; [15]) [nM],IC50 (H3N2 (influenza virus) [7]) [nM],IC50 (H1N1 (influenza virus) [8]) [nM],IC50 (H7N9 (influenza virus) [9]) [nM],IC50 [10] [nM],IC50 [11] [nM],SI (TC50/IC50) [12],IC50 [12] [nM],SI (TC50/IC50) (Zika Virus),IC50 (Zika Virus) [nM],other results
O=C(O)c1cc(F)ccc1/C=N/Nc1nc(-c2ccccc2Cl)cs1 [Compound 10-1],300,150,1000,313,615,516,5.6,49000,45000,50000,89000,310,390,490,180,7390,306,160,523,170,SI (TC50/IC50) [11]: 6.8
Cc1ccc(/C=N/Nc2nc(-c3ccccc3Cl)cs2)c(C(=O)O)c1 [Compound 9-1],125.8,310,3000,330,653,327,9,32000,39000,135000,42000,270,360,670,330,3360,100,320,127,330,SI (TC50/IC50) [11]: 40
"Cc1ccc(/C=N/N(C)c2nc(-c3ccccc3Cl)cs2)c(C(=O)O)c1 [Compound 9, (E)-4-(2-chlorophenyl)-2-[1-methyl-2-(4-methyl-2-carboxybenzylidene)hydrazino]thiazole]",106,170,1000,137,240,83,8.3,11000,18000,35000,15000,190,270,530,120,2270,73.3,150,100,150,SI (TC50/IC50) [11]: 15
Cc1sc(N/N=C/c2ccccc2C(=O)O)nc1-c1ccccc1 [Compound 12-1],59,390,2000,246,362,108,5,43000,23000,39000,33000,520,910,2300,390,6910,138.7,310,110,300,SI (TC50/IC50) [11]: 5.6
"CN(/N=C/c1ccccc1C(=O)O)c1nc(-c2ccccc2Cl)cs1 [Compound 1, (E)-4-(2-chlorophenyl)-2-[1-methyl-2-(2-carboxybenzylidene)hydrazino]thiazole]",145,110,1000,125,83,11,7.1,12000,16000,31000,13000,120,420,2320,140,4340,80,150,130,100,
